Laboratory results as given in ChEMBL document CHEMBL4177673, “Imidazo[1,2-a]pyridin-6-yl-benzamide analogs as potent RAF inhibitors” (Bioorg Med Chem Lett, 2017).
In brackets after ≈: the same amount, converted by molar mass.

Legend:
[1] = biological target: T1, Serine/threonine-protein kinase B-raf (Homo sapiens, UniProt P15056, V600E); assay: Inhibition of recombinant C-terminal his6-tagged B-Raf (437 to 765 residues) V600E mutant (unknown origin) catalytic domain expressed in baculovirus infected Sf21 insect cells using biotinylated Mek substrate preincubated for 60 mins measured after 3 hrs by amplified luminescence proximity homogeneous assay
[2] = biological target: T1, Serine/threonine-protein kinase B-raf; assay: Inhibition of B-Raf V600E mutant in human A375 cells assessed as reduction in ERK phosphorylation; assay type: cell-based
A-375 = assay: Antiproliferative activity against human A375 cells; assay type: functional, cell-based
MAP kinase p38 = MAP kinase p38 (Homo sapiens, UniProt O15264+Q15759+Q16539+P53778); assay: Inhibition of P38 (unknown origin); assay type: protein assay
Homo sapiens [3] = organism: Homo sapiens; assay: Selectivity ratio of IC50 for P38 (unknown origin) to IC50 for recombinant C-terminal his6-tagged B-Raf (437 to 765 residues) V600E mutant (unknown origin) expressed in baculovirus infected Sf21 insect cells
[4] = biological target: Vascular endothelial growth factor receptor 2 (Homo sapiens, UniProt P35968); assay: Inhibition of VEGFR2 (unknown origin)
Homo sapiens [5] = organism: Homo sapiens; assay: Selectivity ratio of IC50 for VEGFR2 (unknown origin) to IC50 for recombinant C-terminal his6-tagged B-Raf (437 to 765 residues) V600E mutant (unknown origin) expressed in baculovirus infected Sf21 insect cells
[6] = Solubility of the compound in PBS at pH 7; assay type: physicochemical
[7] = biological target: Platelet-derived growth factor receptor alpha (Homo sapiens, UniProt P16234); assay: Inhibition of PDGFRalpha (unknown origin)
[8] = biological target: Mast/stem cell growth factor receptor Kit (Homo sapiens, UniProt P10721); assay: Inhibition of Kit (unknown origin)
Ephrin type-A receptor 4 = Ephrin type-A receptor 4 (Homo sapiens, UniProt P54764); assay: Inhibition of EphA4 (unknown origin)
Ephrin type-B receptor 4 = biological target: T2, Ephrin type-B receptor 4 (Homo sapiens, UniProt P54760); assay: Inhibition of EphB4 (unknown origin)
T2 sequence (P54760 whole entry): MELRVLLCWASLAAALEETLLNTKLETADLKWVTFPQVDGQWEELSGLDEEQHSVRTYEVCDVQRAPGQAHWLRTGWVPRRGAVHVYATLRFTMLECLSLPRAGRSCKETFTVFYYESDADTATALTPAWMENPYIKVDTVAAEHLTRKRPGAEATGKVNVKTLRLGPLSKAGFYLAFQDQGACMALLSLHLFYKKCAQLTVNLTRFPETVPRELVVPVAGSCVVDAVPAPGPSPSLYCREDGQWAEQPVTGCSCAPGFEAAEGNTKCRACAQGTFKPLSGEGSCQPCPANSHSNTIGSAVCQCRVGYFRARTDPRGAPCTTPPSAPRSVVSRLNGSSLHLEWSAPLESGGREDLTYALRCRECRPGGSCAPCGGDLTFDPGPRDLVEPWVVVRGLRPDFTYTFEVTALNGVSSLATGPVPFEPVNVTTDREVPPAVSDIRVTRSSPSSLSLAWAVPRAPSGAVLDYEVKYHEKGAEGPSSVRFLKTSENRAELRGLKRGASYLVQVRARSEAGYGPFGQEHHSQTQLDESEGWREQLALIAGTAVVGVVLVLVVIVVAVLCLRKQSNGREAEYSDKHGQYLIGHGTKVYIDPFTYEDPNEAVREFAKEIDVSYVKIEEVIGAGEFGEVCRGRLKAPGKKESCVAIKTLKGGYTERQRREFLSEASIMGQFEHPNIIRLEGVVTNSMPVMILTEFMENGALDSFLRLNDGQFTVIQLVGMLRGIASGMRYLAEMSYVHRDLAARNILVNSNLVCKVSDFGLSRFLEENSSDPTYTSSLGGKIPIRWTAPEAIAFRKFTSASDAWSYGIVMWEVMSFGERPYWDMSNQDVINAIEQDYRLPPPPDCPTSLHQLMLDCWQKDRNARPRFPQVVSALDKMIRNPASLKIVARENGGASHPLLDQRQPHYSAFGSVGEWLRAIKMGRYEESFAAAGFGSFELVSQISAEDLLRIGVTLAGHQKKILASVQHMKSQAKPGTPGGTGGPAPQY

[9] = biological target: Tyrosine-protein kinase Lyn (Homo sapiens, UniProt P07948); assay: Inhibition of Lyn (unknown origin)
[10] = Clearance in mouse at 20 mg/kg, po administered as single dose; assay type: ADME, organism-based; details: in vivo
Mus musculus = assay: Volume of distribution in mouse at 20 mg/kg, po administered as single dose; assay type: ADME, organism-based; details: in vivo
[11] = Half life in mouse at 20 mg/kg, po administered as single dose; assay type: ADME, organism-based; details: in vivo
[12] = Oral bioavailability in mouse at 20 mg/kg administered as single dose; assay type: ADME, organism-based; details: in vivo

Chain of Vascular endothelial growth factor receptor 2 (P35968 whole entry, the tested form may be a part): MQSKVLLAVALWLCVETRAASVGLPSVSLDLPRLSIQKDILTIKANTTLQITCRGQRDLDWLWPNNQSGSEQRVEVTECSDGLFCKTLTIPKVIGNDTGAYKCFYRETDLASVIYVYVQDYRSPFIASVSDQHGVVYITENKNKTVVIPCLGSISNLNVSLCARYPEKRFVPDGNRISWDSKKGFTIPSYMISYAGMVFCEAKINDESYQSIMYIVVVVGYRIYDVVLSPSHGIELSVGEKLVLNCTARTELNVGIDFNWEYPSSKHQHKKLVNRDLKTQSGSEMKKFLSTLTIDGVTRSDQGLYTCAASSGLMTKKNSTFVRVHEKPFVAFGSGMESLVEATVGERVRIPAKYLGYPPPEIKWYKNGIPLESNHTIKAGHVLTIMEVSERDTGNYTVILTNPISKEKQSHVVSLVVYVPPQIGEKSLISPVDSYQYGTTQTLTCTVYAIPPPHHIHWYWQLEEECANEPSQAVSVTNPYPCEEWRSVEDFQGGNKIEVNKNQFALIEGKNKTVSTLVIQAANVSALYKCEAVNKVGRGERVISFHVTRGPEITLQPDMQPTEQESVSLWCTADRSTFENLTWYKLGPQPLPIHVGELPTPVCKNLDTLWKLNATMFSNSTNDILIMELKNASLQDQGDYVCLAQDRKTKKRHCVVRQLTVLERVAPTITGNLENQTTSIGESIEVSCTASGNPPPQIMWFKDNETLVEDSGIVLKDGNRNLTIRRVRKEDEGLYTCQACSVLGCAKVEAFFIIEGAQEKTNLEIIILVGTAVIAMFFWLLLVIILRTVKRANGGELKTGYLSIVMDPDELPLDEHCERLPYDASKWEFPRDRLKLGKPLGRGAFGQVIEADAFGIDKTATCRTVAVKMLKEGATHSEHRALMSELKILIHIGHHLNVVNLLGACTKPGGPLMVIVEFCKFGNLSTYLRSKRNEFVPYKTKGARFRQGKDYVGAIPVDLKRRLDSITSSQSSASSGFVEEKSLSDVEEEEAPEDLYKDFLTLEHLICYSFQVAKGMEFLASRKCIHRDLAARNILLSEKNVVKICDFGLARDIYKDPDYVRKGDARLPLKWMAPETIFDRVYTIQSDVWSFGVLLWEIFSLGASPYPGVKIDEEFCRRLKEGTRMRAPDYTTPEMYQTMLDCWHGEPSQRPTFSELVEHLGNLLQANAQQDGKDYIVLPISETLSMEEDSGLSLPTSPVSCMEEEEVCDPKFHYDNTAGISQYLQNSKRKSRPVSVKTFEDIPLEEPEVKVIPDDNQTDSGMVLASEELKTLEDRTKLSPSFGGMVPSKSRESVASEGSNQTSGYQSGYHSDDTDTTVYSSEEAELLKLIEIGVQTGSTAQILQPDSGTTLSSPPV
T1 sequence (P15056 2-766 V600E limits assumed): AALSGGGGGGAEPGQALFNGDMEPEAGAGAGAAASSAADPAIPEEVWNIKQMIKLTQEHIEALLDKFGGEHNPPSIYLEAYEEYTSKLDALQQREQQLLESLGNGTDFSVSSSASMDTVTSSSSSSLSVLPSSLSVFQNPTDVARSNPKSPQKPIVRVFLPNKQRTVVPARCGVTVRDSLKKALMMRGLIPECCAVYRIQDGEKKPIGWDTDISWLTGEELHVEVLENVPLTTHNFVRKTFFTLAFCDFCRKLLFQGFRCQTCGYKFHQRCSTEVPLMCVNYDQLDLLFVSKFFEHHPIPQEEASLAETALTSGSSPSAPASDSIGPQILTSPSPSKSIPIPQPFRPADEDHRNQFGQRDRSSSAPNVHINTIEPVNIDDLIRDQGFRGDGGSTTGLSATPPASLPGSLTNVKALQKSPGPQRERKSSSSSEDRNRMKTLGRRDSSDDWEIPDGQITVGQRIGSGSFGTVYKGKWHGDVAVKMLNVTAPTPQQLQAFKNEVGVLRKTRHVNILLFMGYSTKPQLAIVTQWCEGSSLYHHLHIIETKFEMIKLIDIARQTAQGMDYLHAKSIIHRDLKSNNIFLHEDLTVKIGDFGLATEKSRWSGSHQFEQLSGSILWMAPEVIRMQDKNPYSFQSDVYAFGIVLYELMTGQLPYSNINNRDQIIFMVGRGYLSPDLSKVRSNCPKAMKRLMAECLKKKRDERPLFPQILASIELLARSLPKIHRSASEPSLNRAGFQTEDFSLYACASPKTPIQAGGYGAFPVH
Chain of Tyrosine-protein kinase Lyn (P07948 whole entry): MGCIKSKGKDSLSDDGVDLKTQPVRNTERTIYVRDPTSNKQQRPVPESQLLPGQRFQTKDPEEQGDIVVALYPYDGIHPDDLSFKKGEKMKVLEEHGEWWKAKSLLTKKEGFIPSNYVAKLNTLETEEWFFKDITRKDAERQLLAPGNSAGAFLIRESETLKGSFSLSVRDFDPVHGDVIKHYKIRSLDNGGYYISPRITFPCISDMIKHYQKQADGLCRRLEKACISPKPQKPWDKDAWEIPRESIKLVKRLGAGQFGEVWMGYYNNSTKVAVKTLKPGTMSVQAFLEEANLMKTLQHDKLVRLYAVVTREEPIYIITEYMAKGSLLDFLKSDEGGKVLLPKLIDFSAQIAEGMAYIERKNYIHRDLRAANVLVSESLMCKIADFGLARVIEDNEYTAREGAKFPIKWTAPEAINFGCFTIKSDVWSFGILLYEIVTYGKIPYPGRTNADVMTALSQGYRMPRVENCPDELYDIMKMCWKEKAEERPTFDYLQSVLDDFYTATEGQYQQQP
Chain of Platelet-derived growth factor receptor alpha (P16234 whole entry): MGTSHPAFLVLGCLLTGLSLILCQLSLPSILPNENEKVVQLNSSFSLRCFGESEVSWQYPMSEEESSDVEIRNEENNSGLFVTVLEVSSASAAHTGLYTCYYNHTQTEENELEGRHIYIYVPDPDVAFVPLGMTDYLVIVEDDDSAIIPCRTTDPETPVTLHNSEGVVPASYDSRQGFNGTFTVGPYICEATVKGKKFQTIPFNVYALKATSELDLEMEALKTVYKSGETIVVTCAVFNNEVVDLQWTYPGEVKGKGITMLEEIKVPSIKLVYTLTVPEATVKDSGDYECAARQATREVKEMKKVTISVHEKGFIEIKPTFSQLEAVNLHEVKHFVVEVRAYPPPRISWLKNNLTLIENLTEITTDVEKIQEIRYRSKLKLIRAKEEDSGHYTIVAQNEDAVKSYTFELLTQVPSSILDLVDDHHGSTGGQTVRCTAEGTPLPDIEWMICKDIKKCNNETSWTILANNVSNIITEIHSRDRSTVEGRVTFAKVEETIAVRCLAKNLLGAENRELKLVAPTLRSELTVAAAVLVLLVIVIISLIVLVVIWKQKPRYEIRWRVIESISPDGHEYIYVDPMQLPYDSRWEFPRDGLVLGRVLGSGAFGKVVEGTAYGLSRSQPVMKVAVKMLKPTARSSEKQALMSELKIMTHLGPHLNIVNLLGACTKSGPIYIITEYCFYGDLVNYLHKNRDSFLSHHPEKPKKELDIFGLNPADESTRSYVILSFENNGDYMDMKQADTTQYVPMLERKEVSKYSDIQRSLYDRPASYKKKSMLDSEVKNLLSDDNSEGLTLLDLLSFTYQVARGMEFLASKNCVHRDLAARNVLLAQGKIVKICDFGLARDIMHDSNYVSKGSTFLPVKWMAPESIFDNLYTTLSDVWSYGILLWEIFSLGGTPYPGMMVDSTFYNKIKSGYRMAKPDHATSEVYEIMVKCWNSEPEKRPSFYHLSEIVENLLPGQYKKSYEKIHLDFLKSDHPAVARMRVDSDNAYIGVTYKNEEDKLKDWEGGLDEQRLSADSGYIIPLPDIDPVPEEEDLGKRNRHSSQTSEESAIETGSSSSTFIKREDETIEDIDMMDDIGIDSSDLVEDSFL
Chain of Mast/stem cell growth factor receptor Kit (P10721 whole entry): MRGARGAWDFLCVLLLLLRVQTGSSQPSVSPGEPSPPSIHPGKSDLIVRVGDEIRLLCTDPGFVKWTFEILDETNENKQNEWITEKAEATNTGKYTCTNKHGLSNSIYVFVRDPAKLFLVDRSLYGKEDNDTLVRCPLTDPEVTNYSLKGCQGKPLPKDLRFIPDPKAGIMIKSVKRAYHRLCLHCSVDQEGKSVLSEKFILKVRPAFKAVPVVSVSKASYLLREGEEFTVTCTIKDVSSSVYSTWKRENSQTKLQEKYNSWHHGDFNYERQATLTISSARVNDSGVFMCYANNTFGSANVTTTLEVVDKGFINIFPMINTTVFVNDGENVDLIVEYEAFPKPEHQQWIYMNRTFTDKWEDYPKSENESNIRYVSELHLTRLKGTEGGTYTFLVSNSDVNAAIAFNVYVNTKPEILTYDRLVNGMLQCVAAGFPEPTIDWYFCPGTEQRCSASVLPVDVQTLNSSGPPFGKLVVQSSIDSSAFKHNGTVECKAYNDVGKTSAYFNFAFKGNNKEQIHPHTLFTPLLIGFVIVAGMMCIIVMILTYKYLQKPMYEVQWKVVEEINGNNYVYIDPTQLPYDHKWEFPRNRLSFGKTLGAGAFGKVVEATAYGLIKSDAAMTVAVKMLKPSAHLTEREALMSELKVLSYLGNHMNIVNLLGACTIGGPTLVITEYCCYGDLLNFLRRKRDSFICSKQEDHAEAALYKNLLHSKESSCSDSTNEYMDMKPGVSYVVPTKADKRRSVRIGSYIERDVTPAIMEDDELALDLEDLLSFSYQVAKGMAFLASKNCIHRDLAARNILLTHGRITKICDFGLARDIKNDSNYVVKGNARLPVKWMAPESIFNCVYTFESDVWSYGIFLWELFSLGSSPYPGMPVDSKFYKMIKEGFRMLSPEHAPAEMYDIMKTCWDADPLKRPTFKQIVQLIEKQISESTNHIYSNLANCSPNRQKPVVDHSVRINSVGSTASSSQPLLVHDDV

Row | SMILES | IC50 [1] | EC50 [2] | EC50 (A-375) | IC50 (MAP kinase p38) | Ratio IC50 (Homo sapiens [3]) | IC50 [4] | Ratio IC50 (Homo sapiens [5]) | solubility [6] | IC50 [7] | IC50 [8] | IC50 (Ephrin type-A receptor 4) | IC50 (Ephrin type-B receptor 4) | IC50 [9] | CL/F [10] | Vd (Mus musculus) | half-life [11] | bioavailability [12]
1 | CC(=O)Nc1cn2cc(-c3cc(NC(=O)c4ccccc4)ccc3C)ccc2n1 | 61 nM | 540 nM | 100 nM | 1.6 µM | 3 to 20 | 11000 nM | 18 |  |  |  |  |  |  |  |  |  | 
2 | CC(=O)Nc1cn2cc(-c3cc(NC(=O)c4ccc(CN5CCN(C)CC5)c(C(F)(F)F)c4)ccc3C)ccc2n1 | 5 nM | 130 nM | 430 nM | < 0.011 µM | < 2 | 110 nM | 20 | 4.6 µM (≈ 2.6 µg/mL) |  |  |  |  |  |  |  |  | 
3 | CC(=O)Nc1cn2cc(-c3cc(NC(=O)c4cc(C(F)(F)F)ccn4)ccc3C)ccc2n1 | 0.9 nM | 770 nM | 280 nM | 0.66 µM | 700 | 2000 nM | 2000 |  |  |  |  |  |  |  |  |  | 
4 | CC(=O)Nc1cn2cc(-c3cc(NC(=O)c4cccc(C(C)(C)C)c4)ccc3C)ccc2n1 | 0.3 nM | 25 nM | 57 nM | 0.002 µM | 7 | 44 nM | 146 |  |  |  |  |  |  |  |  |  | 
5 | CC(=O)Nc1cn2cc(-c3cc(NC(=O)c4cc(N5CCN(C)C[C@@H]5C)cc(C(F)(F)F)c4)ccc3C)ccc2n1 | 3 nM | 240 nM | 340 nM | 0.002 µM | 0.7 |  |  | 122 µM (≈ 68.9 µg/mL) |  |  |  |  |  |  |  |  | 
6 | CC(=O)Nc1cn2cc(-c3cc(NC(=O)c4cccc(Cl)c4)ccc3C)ccc2n1 | 0.3 nM | 480 nM | 70 nM | 3.1 µM | 10000 | 2700 nM | 9000 |  |  |  |  |  |  |  |  |  | 
7 | CC(=O)Nc1cn2cc(-c3cc(NC(=O)c4cccc(C(F)(F)F)c4)ccc3C)ccc2n1 | 0.2 nM | 230 nM | 86 nM | 0.22 µM | 1100 | 320 to 670 nM | 1600 | < 0.4 µM | 8 nM | 52 nM | 74 nM | 150 nM | 170 nM | 18 mL/min/kg | 2150 mL/kg | 147 min | 73%
8 | CC(=O)Nc1cn2cc(-c3cc(NC(=O)c4cccc(C(F)(F)F)n4)ccc3C)ccc2n1 | 6 nM | > 10000 nM | 130 nM | > 25 µM | > 4000 |  |  |  |  |  |  |  |  |  |  |  | 
